Source: patent US11254944B2, “Agrobacterium derived cell penetrating peptides as nanocarriers” (priority 2017, dated 2022)
Where a SMILES comes first, the peptide text is derived from it. The star is where a group is joined. FITC = O=C1OC2(c3ccc(O)cc3Oc3cc(O)ccc32)c2ccc(NC(=S)*)cc21

Key:
[1] = test system: mesophyll protoplasts of T. aestivum; assay: Cellular uptake of FITC-Vir in mesophyll protoplasts (confocal microscopy, fluorimetry); type: cell-based; details: for CPP activity compared with the parent peptide: 15 μM
Description: FIG. 2: illustrates the cellular internalization of FITC-Vir in mesophyll protoplasts of T. aestivum (A) Confocal microscopic images of cellular uptake (a) untreated (No peptide) (b) Vir (15 μM) (c) Tat (5 μM) (d) M-Tat (5 μM) (e) Dextran Sulphate (5 μM). (B) Quantitative estimation of uptake in protoplasts as assessed by fluorimetry.
In the said embodiment, a process for identification of optimum concentration and mechanism of cellular uptake of Vir of the peptide nano-carrier in the mesophyll protoplasts of T. aestivum is described below and illustrated in FIG. 2 by employing several endocytic inhibitors such as sodium azide, nocodazole, cytochalasin-D cytochalasin D, and chlorpromazine for blocking different energy-dependent pathways.
It is observed that with increasing concentration, the number of cells internalizing the peptide also increases proportionally.
(§1) FIG. 2 illustrates that in case of protoplasts, the uptake of Vir is affected in the presence of either endocytic inhibitors.
The viability of the protoplasts is affected at higher concentrations of the peptide, as a drop of 20-30% at 15 μM and 60-70% at 30 μM in the percentage of viable cells is observed with respect to untreated cells (viability 90%).

HeLa cells [2] = assay: Cellular uptake of FITC-Vir in HeLa cells (confocal microscopy, flow cytometry); type: cell-based
Description: FIG. 4: illustrates the cellular translocation of FITC-Vir in HeLa cells (A) confocal microscopy (a) Untreated (b) Vir (15 μM) (c) Tat (5 μM) (d) M-Tat (5 μM) (e) Dextran Sulphate (5 μM). (B) Quantitative estimation of uptake in HeLa cells as assessed by flow cytometry.
as §1
In one such embodiment, a method of targeting and delivering macromolecules to HeLa cells, as representative of mammalian system, using the peptide nanocarrier includes incubating the HeLa cells with the agrobacterium derived cell penetrating peptide nanocarrier Vir.
(§2) In the said embodiment, a process for identification of optimum concentration of the nano-carrier Vir in the HeLa cells is substantially the same as identification of optimum concentration of the nano-carrier Vir in the mesophyll protoplasts of T. aestivum as discussed above and is illustrated in FIG. 4. It is observed that the internalization in HeLa cells starts from 5 μM but a distinct nuclear localization is observed from 15 μM onwards as shown in FIG. 4. As observed with protoplasts, the peptide uptake in HeLa cells also increases with increasing concentration of peptide with 60-70% cells showing uptake at 15 μM and more than 90% cells showing uptake at 30 μM. However, unlike protoplasts, the viability of HeLa cells is not compromised greatly as 94% cells remained viable at 15 μM and 84% cells at 30 μM.

root tips and leaf bases = assay: Reporter protein (β-glucuronidase) delivery by Vir in root tips and leaf bases; type: cell-based, T. aestivum; details: β-glucuronidase 1 μg, Vir 15 μM
From the text: (§3) FIG. 6: illustrates an analysis of cargo delivery ability of Vir peptide in plant and mammalian systems. Macromolecule delivery by Vir in (A) Protoplast of wheat (B) leaf bases (C) root tips with (a) no peptide (b) GUS buffer only (c) β-glucuronidase only (d) Vir only (e) Vir-β-galactosidase; (D) HeLa cells with (a) non peptide (b) X-gal staining solution only (c) β-galactosidase only (d) Vir only (e) Vir-β-galactosidase.
(§4) In one embodiment, the ability of the peptide nanocarrier to deliver macromolecular cargoes in cells is evaluated by using β-glucuronidase enzyme as the reporter protein whereas β-galactosidase is employed for delivery in mammalian cells. The reporter proteins are non-covalently complexed with peptide nanocarrier, SEQ ID NO: 3 with the sequence KRPRRKRARGNRR at room temperature for 1 hr. The reporter proteins are used at a concentration of 1 μg while the peptide nanocarrier is used at the optimized concentration that is, 15 μM for complex formation. The peptide-protein complexes thus formed, were incubated with mammalian cells, plant protoplasts and tissues (root tips and leaf bases) further for 1 hour at 18-37 deg C. and room temperature, at pH range from 5.5 to 7.5 respectively. The enzyme delivery by peptide nanocarrier is examined by staining the cells with respective staining solutions. […]

Protoplast of wheat = assay: Reporter protein (β-glucuronidase) delivery by Vir in wheat protoplasts; type: cell-based, T. aestivum; details: β-glucuronidase 1 μg, Vir 15 μM
From the text: as §3, §4

HeLa cells [3] = assay: Reporter protein (β-galactosidase) delivery by Vir in HeLa cells; type: cell-based; details: β-galactosidase 1 μg, Vir 15 μM
From the text: as §3, §4

[4] = Viability of HeLa cells after peptide incubation; type: cell-based; details: human, read-out: cells remained viable
Description: as §2

[5] = test system: root tips and leaf bases of T. aestivum; assay: Translocation of Vir in meristematic tissues (root tips, leaf bases); type: cell-based; details: 5-40 μM
Description: FIG. 3: illustrates the translocation of Vir in various tissues of T. aestivum (A) leaf bases (B) root tips. Different panels represent (a) Untreated (b) Dextran sulphate (5 μM) (c) M-Tat (5 μM) (d) Tat (5 μM) (e) Vir: 5 μM (f) 10 μM (g) 15 μM (h) 20 μM (i) 30 μM (j) 40 μM.
In another embodiment, a method of targeting and delivering macromolecules to a meristematic tissue that is, root tips and leaf bases, of T. aestivum(wheat plant) using the agrobacterium derived cell penetrating peptide nanocarrier Vir includes incubating the meristematic tissues that is, root tips and leaf bases, of T. aestivum with the peptide nanocarrier.
In the said embodiment, a process for identification of optimum concentration of the peptide nanocarrier in the meristematic tissues of T. aestivum is substantially the same as identification of optimum concentration of the nano-carrier Vir in the mesophyll protoplasts of T. aestivum as discussed above and is illustrated in FIG. 3.

Molecule	CPP activity compared with the parent peptide [1]	CPP activity compared with the parent peptide (HeLa cells [2]; 15 μM)	delivery efficiency (root tips and leaf bases; leaf bases) [%]	delivery efficiency (root tips and leaf bases; root tips) [%]	delivery efficiency (Protoplast of wheat) [%]	efficiency of β-galactosidase delivery (HeLa cells [3])	viability at 15 µM ([4]; 15 μM) [%]	viability at 30 µM ([4]; 30 μM) [%]	cells show uptake [1]	concentration from which prominent nuclear localization is observed [1] [µM]	number of cells exhibiting cellular uptake ([1]; distinct nuclear localization)	uptake in the presence of endocytic inhibitors ([1]; sodium azide, nocodazole, cytochalasin D, chlorpromazine)	concentration from which distinct nuclear localization is observed (HeLa cells [2]) [µM]	concentration from which internalization starts (HeLa cells [2]) [µM]	cells showing uptake (HeLa cells [2]; 15 μM)	cells showing uptake (HeLa cells [2]; 30 μM)	cellular uptake reduced (HeLa cells [2]; at 4° C.) [%]	cellular uptake reduced (HeLa cells [2]; in presence of chlorpromazine) [%]	cellular uptake in presence of other inhibitors (HeLa cells [2]; other endocytic inhibitors)	uptake in the tissues [5]
KAPARKRARGNRR [M-Vir1, mutated VirD2 peptide, mutation in KRPR to KAPA]	increased	increased																		
KRPRRKAAAGNRR [M-Vir2, mutated VirD2 peptide, mutation in RKRAR to RKAAA]	remains similar to the parent peptide	remains similar to the parent peptide																		
C[C@H](NC(=O)[C@H](CCCNC(=N)N)NC(=O)[C@H](CCCCN)NC(=O)[C@H](CCCNC(=N)N)NC(=O)[C@H](CCCNC(=N)N)NC(=O)[C@@H]1CCCN1C(=O)[C@H](CCCNC(=N)N)NC(=O)[C@H](CCCCN)NC(=S)Nc1ccc2c(c1)C(=O)OC21c2ccc(O)cc2Oc2cc(O)ccc21)C(=O)N[C@@H](CCCNC(=N)N)C(=O)NCC(=O)N[C@@H](CC(N)=O)C(=O)N[C@@H](CCCNC(=N)N)C(=O)N[C@@H](CCCNC(=N)N)C(=O)O [Vir, KRPRRKRARGNRR] ({FITC}-KRPRRKRARGNRR-OH; N-terminus and C-terminus assumed)			90	90	50	more than 90%	94	84	10-15%	≥ 15	50-60%	affected	≥ 15	≥ 5	60-70%	more than 90%	20	20	remained unaffected	increases with increasing concentration of the peptide
